# Data taken from patent publication US20200078363A1, “POST-SURGICAL PAIN TREATMENT” (Heron Therapeutics, Inc., priority 2018, published 2020).
# System: post-surgical incisional (post-operative or POP) pain
# Test: Post-operative (POP) pain porcine model, von Frey test
# Type: in vivo
# Details: Group 1: IV aprepitant 6 mg/kg once prior to surgery and daily for 5 days after surgery, no other medication; 4 pigs
# Description: Example 1 describes three studies conducted to evaluate the capacity to reduce post-surgical incisional (post-operative or POP) pain in a porcine model system. Using a post-operative (POP) pain porcine model system, where a 7 cm long skin and fascia incision was made in the left flank under general anesthesia to pigs, NK-1 receptor antagonist alone or in combination with pain medication (i.e., bupivacaine and meloxicam) were applied to the wound. The skin incision was then closed using sterile sutures. Various methods were evaluated for their capacity to reduce post-surgical incisional (post-operative or POP) pain in a porcine model system. […] All studies described below evaluated 4 pigs per group. Post-operative pain was assessed using the von Frey methodology. […] By alternating the filament thickness, the gram force required to achieve withdrawal reaction was determined and recorded. […] Several studies evaluated emulsion compositions containing aprepitant (diluted 1:7) with saline, administered by intravenous infusion dosed at 6 mg/kg as a slow bolus via an IV catheter in the ear. […] Analgesia was evaluated by response in the von Frey test, as described above. […] By following similar procedures described in Example 1, the analgesic effect of a lower dose of aprepitant (i.e., lower than 6.0 mg/kg) was evaluated. […]
smiles,measurement,value
C[C@@H](O[C@H]1OCCN(Cc2n[nH]c(=O)[nH]2)[C@H]1c1ccc(F)cc1)c1cc(C(F)(F)F)cc(C(F)(F)F)c1 [aprepitant],"analgesia, von Frey response (withdrawal force)",little analgesic response
